Reference: ChEMBL document CHEMBL4052794, “Design, synthesis, docking and biological evaluation of 4-phenyl-thiazole derivatives as autotaxin (ATX) inhibitors” (Bioorg Med Chem Lett, 2017)

Molecular target: T1, Autotaxin (Homo sapiens, UniProt Q13822)
Assay: Inhibition of ATX in human plasma using LPC as substrate pretreated for 15 mins followed by substrate addition measured after 3 hrs by LC-MS/MS analysis

Question: `CS(=O)(=O)Nc1ccc(-c2csc(C(=O)NC3CCN(C(=O)OCc4cc(Cl)cc(Cl)c4)CC3)n2)cc1` was tested. Which IC50 did it give?
Answer: 0.735 µM

Question: For `O=C(NC1CCN(C(=O)OCc2cc(Cl)cc(Cl)c2)CC1)c1nc(-c2ccc(CP(=O)(O)O)cc2)cs1`, which IC50 is on record?
Answer: 0.015 µM

Molecular target: T1, Autotaxin
Assay: Inhibition of human ATX using FS-3 as substrate measured every 5 mins for 30 mins by fluorescence assay

Question: With `NS(=O)(=O)c1cc(-c2csc(C(=O)NCc3ccc(Cl)cc3)n2)ccc1Cl` as the compound, how does the IC50 read?
Answer: 2.11 µM

Question: For `O=C(OCc1ccccc1)N1CCC(Nc2nc(-c3ccc(CP(=O)(O)O)cc3)cs2)C1` (configuration not stated), which IC50 is on record?
Answer: 0.0103 µM

Question: How did the IC50 turn out when `CS(=O)(=O)Nc1ccc(-c2csc(C(=O)NC3CCN(C(=O)OCc4cc(Cl)cc(Cl)c4)CC3)n2)cc1` was run?
Answer: 0.00299 µM

Question: For `NC(=O)c1cc(-c2csc(NC3CCN(C(=O)OCc4ccccc4)C3)n2)ccc1O` (configuration not stated), which IC50 is on record?
Answer: 4.47 µM

Question: `O=C(OCc1ccccc1)N1CCC(Nc2nc(-c3ccc(CP(=O)(O)O)cc3)cs2)CC1` was tested. Which IC50 did it give?
Answer: 0.0759 µM

Question: `CN(c1ccc(S(N)(=O)=O)cc1)c1nc(-c2ccc(O)c(CO)c2)cs1` was tested. Which IC50 did it give?
Answer: 5.82 µM

Question: Which IC50 does the source give for `O=C(OCc1ccccc1)N1CCC(Nc2nc(-c3ccc(O)c(O)c3)cs2)C1` (configuration not stated) here?
Answer: 1.23 µM

Question: For `NS(=O)(=O)c1cc(-c2csc(C(=O)Nc3cccc(C(=O)O)c3)n2)ccc1Cl`, which IC50 is on record?
Answer: 10.5 µM

Question: How did the IC50 turn out when `NS(=O)(=O)c1cc(-c2csc(NC3CCN(C(=O)OCc4ccccc4)CC3)n2)ccc1Cl` was run?
Answer: 1.3 µM

Question: Which IC50 does the source give for `NS(=O)(=O)c1cc(-c2csc(C(=O)NC3CCN(C(=O)OCc4ccccc4)CC3)n2)ccc1Cl` here?
Answer: 0.505 µM

Question: Which IC50 does the source give for `CS(=O)(=O)Nc1cccc(-c2csc(NC3CCN(C(=O)OCc4cc(Cl)cc(Cl)c4)CC3)n2)c1` here?
Answer: > 0.1 µM

Question: `CN(c1ccc(S(N)(=O)=O)cc1)c1nc(-c2ccc(O)c(C(=O)O)c2)cs1` was tested. Which IC50 did it give?
Answer: 10.6 µM

Question: `COc1ccc(-c2csc(C(=O)NC3CCN(C(=O)OCc4cc(Cl)cc(Cl)c4)CC3)n2)cc1` was tested. Which IC50 did it give?
Answer: 0.0303 µM

Question: For `NS(=O)(=O)c1cc(-c2csc(NC3CCN(C(=O)OCc4ccccc4)C3)n2)ccc1Cl` (configuration not stated), which IC50 is on record?
Answer: 1.34 µM

Question: Which IC50 does the source give for `O=C(Cc1cccc(Nc2nc(-c3ccc(O)c(O)c3)cs2)c1)NCc1ccccc1` here?
Answer: 8.06 µM

Question: With `NS(=O)(=O)c1cc(-c2csc(C(=O)NC3CCN(C(=O)OCc4cc(Cl)cc(Cl)c4)CC3)n2)ccc1Cl` as the compound, how does the IC50 read?
Answer: 0.00447 µM

Question: `O=C(O)c1cc(-c2csc(NC3CCN(C(=O)OCc4ccccc4)C3)n2)ccc1O` (configuration not stated) was tested. Which IC50 did it give?
Answer: 10.9 µM

Question: How did the IC50 turn out when `O=C(NC1CCN(C(=O)OCc2cc(Cl)cc(Cl)c2)CC1)c1nc(-c2ccc(CP(=O)(O)O)cc2)cs1` was run?
Answer: 0.00219 µM

Question: `CN(c1ccc(S(N)(=O)=O)cc1)c1nc(-c2ccc(O)c(C(N)=O)c2)cs1` was tested. Which IC50 did it give?
Answer: 6.57 µM

Question: With `O=C(NC1CCN(C(=O)OCc2ccccc2)CC1)c1nc(-c2ccc(CP(=O)(O)O)cc2)cs1` as the compound, how does the IC50 read?
Answer: 0.0137 µM

Question: With `O=C(Nc1cccc(Nc2nc(-c3ccc(O)c(O)c3)cs2)c1)OCc1ccccc1` as the compound, how does the IC50 read?
Answer: 9.43 µM

Question: Which IC50 does the source give for `CN(c1ccc2c(c1)CS(=O)(=O)N2)c1nc(-c2ccc(O)c(C(=O)O)c2)cs1` here?
Answer: > 10 µM

Question: Which IC50 does the source give for `CS(=O)(=O)Nc1ccc(-c2csc(N(Cc3ccccn3)c3ccc4nn[nH]c4c3)n2)cc1` here?
Answer: 2.57 µM

Question: `O=C(NC1CCN(C(=O)OCc2cc(Cl)cc(Cl)c2)CC1)c1nc(-c2ccc(Cl)cc2)cs1` was tested. Which IC50 did it give?
Answer: 0.0633 µM

Question: `O=S(=O)(Cc1cccc(Nc2nc(-c3ccc(O)c(O)c3)cs2)c1)NCc1ccccc1` was tested. Which IC50 did it give?
Answer: 11.6 µM
